# “Also recorded” adds a separate entry of the source.
# Tests used:
# [1] = Bioavailability of ABA in mice (serum tested by luciferase activation); type: in vivo, mouse
# Method: Mice were housed in the Stanford University Research Animal Facility in accordance with federal and institutional guidelines. Mice aged 6 to 8 weeks and weighing about 30 g were orally gavaged with 10 mg of ABA in EtOH/Tween 20/Cremophor (4:3:1; […] or just vehicle with syringes. Blood was collected from the tails of mice at the indicated time after gavage and left on ice for 20 min. After blood was coagulated, the samples were spun down at 1500 g for 20 min and serum was collected for immediate use or snap-frozen and stored at −80° C.
# FIG. 5A illustrates the bio-availability of ABA in mice by intraperitoneal injection. With 100 mg ABA/kg mouse body weight, ABA is rapidly available in 30 minutes and still remains in the system after 4 hours. ABA was intraperitoneally injected to mice and serum was collected at indicated time. ABA containing serum was then added as 10% (v/v) of culture media to the CHO cell culture for 24 hours and cells were assayed for luciferase activity. The CHO cells were pre-transfected with the activation and reporter DNA constructs for 24 hours before adding serum. […] With 340 mg ABA/kg mouse body weight, ABA is rapidly available in 1 hour, remains in the system after 8 hours and returns to background level after 24 hours. ABA was orally administrated by gavage to mice and serum was collected at indicated time. ABA containing serum was then added as 10% (v/v) of culture media to the CHO cell culture for 24 hours and cells were assayed for luciferase activity. The CHO cells were pre-transfected with the activation and reporter DNA constructs for 24 hours before adding serum.
# In plants, ABA had been reported to be unstable due to active enzymatic degradation (Cutler, A. J. and Krochko, J. E. (1999) Formation and breakdown of ABA. Trends Plant Sci. 4, 472-478). To examine its stability in mammalian cells, ABA was incubated with CHO cells for up to 48 hours, after which the functional ABA concentration was assayed by the ability of the ABA-incubated cell culture medium to induce luciferase production in cells expressing VP16-PYLcs and wild-type Gal4 DBD-ABIcs. […] For potential therapeutic application in humans, the stability of ABA in the serum and its bioavailability in mice was examined (FIG. 16B). The activity of residual ABA in the serum was measured by its ability to induce the transcriptional activation of the luciferase reporter in cells expressing the ABA-activator cassette. The stability of ABA in isolated serum was tested by incubating ABA with fresh human serum or heat-inactivated fetal bovine serum (FBS) for up to 48 hours and then applying the serum as the ABA source to activate luciferase. […] Using this assay, the bioavailability in mice was evaluated. When ABA was injected intraperitoneally, it entered circulation rapidly, and activity was detectable within 30 min (FIG. 33).
# [2] = ABA stability in fetal bovine serum (luciferase biofunctional readout); type: in vitro ADME; settings: 37° C.
# Method: FIG. 3C provides the results of a stability test of ABA in cell culture conditions. CHO cells were pre-transfected with the activation and reporter DNA constructs for 24 hours. 100 μM ABA was then added to the culture and cells were assayed for luciferase activity after 10 hours. During the 10-hour incubation, the cell culture media were replaced with media containing freshly added ABA every 1, 2.5, 5 hour or no replacement. FIG. 4A illustrates the results of an experiment in which human serum pre-incubated ABA was used to induce luciferase transcription. ABA was incubated with pure non-heat inactivated human serum at 37° C. for indicated time period. ABA containing serum was then added to the CHO cell culture to a final 100 μM ABA concentration for 25 hours and cells were assayed for luciferase activity. The cells were pre-transfected with the activation and reporter DNA constructs for 24 hours. […]
# (§1) In plants, ABA had been reported to be unstable due to active enzymatic degradation (Cutler, A. J. and Krochko, J. E. (1999) Formation and breakdown of ABA. Trends Plant Sci. 4, 472-478). […] The activity of residual ABA in the serum was measured by its ability to induce the transcriptional activation of the luciferase reporter in cells expressing the ABA-activator cassette. […] Using this assay, the bioavailability in mice was evaluated. […]
# [3] = ABA stability in cell culture (luciferase biofunctional readout); type: in vitro ADME, Chinese hamster
# Method: FIG. 3C provides the results of a stability test of ABA in cell culture conditions. CHO cells were pre-transfected with the activation and reporter DNA constructs for 24 hours. 100 μM ABA was then added to the culture and cells were assayed for luciferase activity after 10 hours. During the 10-hour incubation, the cell culture media were replaced with media containing freshly added ABA every 1, 2.5, 5 hour or no replacement. FIG. 4A illustrates the results of an experiment in which human serum pre-incubated ABA was used to induce luciferase transcription. ABA was incubated with pure non-heat inactivated human serum at 37° C. for indicated time period. ABA containing serum was then added to the CHO cell culture to a final 100 μM ABA concentration for 25 hours and cells were assayed for luciferase activity. The cells were pre-transfected with the activation and reporter DNA constructs for 24 hours. FIG. 4B illustrates the results of an experiment in which fetal bovine serum pre-incubated ABA was used to induce luciferase transcription. ABA was incubated with pure heat inactivated fetal bovine serum at 37° C. for indicated time period. ABA containing serum was then added to the CHO cell culture to a final 100 μM ABA concentration for 10 hours and cells were assayed for luciferase activity. The cells were pre-transfected with the activation and reporter DNA constructs for 24 hours.
# as §1
# [4] = intraperitoneal injection, 100 mg ABA/kg
smiles,measurement,setting,value
"CC1=CC(=O)CC(C)(C)C1(O)/C=C/C(C)=C/C(=O)O (stereo not shown) [ABA, abscisic acid]",oral availability,[1],orally bioavailable; also recorded: orally available
same,time to detectable activity in circulation,[1]; injected intraperitoneally,≤ 30 min
same,time ABA still remains in the system,[1]; [4],≥ 4 h
same,time at which ABA is available in serum,[1]; [4],30 min
same,half-life,"[1]; mouse, serum, po, 340 mg/kg, administered orally",~4 h
same,time ABA remains in the system,"[1]; oral gavage, 340 mg ABA/kg",≥ 8 h
same,time at which ABA is available in serum,"[1]; oral gavage, 340 mg ABA/kg",60 min
same,time of return to background level,"[1]; oral gavage, 340 mg ABA/kg",24 h
same,reduction in ability to induce transcription of luciferase,"[2]; pure fetal bovine serum, up to 48 hours",no significant reduction
same,stability in fetal calf serum,[2]; pure heat inactivated fetal bovine serum,stable
same,ABA activity retained,[3]; after 24 hours of incubation with CHO cells,about 60%
same,ABA activity retained,[3]; after 48 hours of incubation with CHO cells,around 23%
same,reduction in ability to induce transcription of luciferase,"[3]; cell culture media, up to 48 hours",no significant reduction

# — patent US20130158098A1, “Alkenyl Substituted Cycloaliphatic Compounds as Chemical Inducers of Proximity” (priority 2010, published 2013)
